For data set [1], the target named is T1, RNR-α (Homo sapiens, UniProt P23921).
T1 sequence (P23921 1-792): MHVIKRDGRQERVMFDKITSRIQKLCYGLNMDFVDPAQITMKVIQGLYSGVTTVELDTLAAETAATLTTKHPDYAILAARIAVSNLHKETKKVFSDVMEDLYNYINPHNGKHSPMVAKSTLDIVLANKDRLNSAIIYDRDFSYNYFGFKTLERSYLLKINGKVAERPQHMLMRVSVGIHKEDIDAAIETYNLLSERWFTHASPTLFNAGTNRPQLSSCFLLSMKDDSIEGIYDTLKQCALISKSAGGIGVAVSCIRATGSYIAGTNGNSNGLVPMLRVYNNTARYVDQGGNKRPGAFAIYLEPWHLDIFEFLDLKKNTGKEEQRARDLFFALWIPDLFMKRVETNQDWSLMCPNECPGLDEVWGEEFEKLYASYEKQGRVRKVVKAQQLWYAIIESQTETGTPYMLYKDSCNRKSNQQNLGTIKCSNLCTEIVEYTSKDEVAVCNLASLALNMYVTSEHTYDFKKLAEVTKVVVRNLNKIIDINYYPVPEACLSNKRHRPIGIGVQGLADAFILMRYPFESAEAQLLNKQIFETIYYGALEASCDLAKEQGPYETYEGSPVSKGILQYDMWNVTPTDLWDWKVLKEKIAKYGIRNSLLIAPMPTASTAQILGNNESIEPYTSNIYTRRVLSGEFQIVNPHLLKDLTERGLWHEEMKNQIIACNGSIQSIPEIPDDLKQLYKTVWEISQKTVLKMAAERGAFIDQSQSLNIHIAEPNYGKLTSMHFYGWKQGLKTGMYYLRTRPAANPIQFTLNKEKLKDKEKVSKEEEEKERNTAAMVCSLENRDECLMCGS
The experiment in a line: FRET-quenching assay reporting ligand-driven RNR-α oligomerization.

The target of data set [2] is T2, D57N-human RNR-α mutant (Homo sapiens, UniProt P23921, D57N).
T2 sequence (P23921 1-792 D57N): T1 sequence (P23921 1-792) with D57N
Put plainly: Inhibition of D57N RNR-α reductase activity. The data set is classed as biochemical. The note with it: up to at least 10-fold above the Ki for wt.

The target of data set [3] is T3, mutant (D57N)-mouse(m)RNR-α (Mus musculus, UniProt P07742, D57N).
T3 sequence (P07742 1-792 D57N): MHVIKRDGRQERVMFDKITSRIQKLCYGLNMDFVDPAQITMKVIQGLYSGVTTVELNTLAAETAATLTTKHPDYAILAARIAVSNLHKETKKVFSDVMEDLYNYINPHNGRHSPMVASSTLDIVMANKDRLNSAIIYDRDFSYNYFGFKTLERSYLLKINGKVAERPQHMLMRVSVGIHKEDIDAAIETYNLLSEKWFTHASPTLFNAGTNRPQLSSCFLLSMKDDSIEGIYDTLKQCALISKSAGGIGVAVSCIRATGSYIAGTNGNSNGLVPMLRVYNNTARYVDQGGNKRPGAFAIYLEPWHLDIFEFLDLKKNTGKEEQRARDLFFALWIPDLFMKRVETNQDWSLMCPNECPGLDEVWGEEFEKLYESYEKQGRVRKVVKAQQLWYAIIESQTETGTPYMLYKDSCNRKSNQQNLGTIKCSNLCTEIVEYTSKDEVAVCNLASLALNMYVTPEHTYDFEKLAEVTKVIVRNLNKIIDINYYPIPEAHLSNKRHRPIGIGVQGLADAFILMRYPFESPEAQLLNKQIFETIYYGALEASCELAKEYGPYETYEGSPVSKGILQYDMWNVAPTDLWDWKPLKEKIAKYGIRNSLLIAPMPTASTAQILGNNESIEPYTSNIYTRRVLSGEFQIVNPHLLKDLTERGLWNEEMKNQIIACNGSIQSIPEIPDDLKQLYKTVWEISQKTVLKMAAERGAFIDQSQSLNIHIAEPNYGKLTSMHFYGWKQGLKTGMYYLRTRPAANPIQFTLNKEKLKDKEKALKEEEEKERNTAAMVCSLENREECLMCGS
The format is cell-based. The following applies: 3 h treatment; 5, 50, 300 μM ClF, ClA, FlUMP; D57N-mRNR-α 3T3 cells.

Another data set concerns the target T4, D57N RNR-α (Homo sapiens, UniProt P23921, D57N).
T4 sequence (P23921 1-792 D57N): T1 sequence (P23921 1-792) with D57N
The experiment in a line: Fluorescence anisotropy displacement of Texas Red-5-dATP from D57N RNR-α. The data set is classed as binding. The following applies: D57N RNR-α 6 μM, T*-dATP 1.2 μM. (In general: In fluorescence polarisation assays a small probe gives low polarisation when free and higher when bound to something large.)

The target in the next data set is T5, wild type RNR-α (Homo sapiens, UniProt P23921).
T5 sequence (P23921 1-792): T1 sequence (P23921 1-792)
Put plainly: Fluorescence anisotropy displacement of Texas Red-5-dATP from wild type RNR-α. The following applies: for further decrease in FA after S site preblocked with saturating dTTP: RNR-α, T*-dATP, saturating ligand then added.

Data set [4] deals with T1, RNR-α. Put plainly: Gel filtration analysis of RNR-α oligomeric state. The following applies: for oligomeric state by gel filtration of α presaturated with dATP (S and A sites): running buffer without nucleotides.
Data set [5] concerns the target T2, D57N-human RNR-α mutant. The note with it: CDP as substrate; cited from earlier work.
Another data set relates to E. coli RNR. The note with it: cited from earlier work.
A further data set concerns the target T6, wt-mouse-(m)RNR-α (Mus musculus, UniProt P07742).
T6 sequence (P07742 1-792): T3 sequence (P07742 1-792 D57N) with N57D
The data set is classed as cell-based. The note with it: 3 h treatment; 5, 50, 300 μM ClF, ClA, FlUMP; wt-mRNR-α 3T3 cells.

Data set [6] relates to Flp-In 293 T-REx cells expressing D57N-α-Flag. The experiment in a line: Proliferation inhibition assay.
Data set [7] deals with Flp-In 293 T-REx cells expressing RNR-α-Flag. Put plainly: Proliferation inhibition assay.

Molecules are shown by their SMILES. Changes are numbered by the printed parent chain. Values joined by “and” are separate entries in the source; they are usually repeats but may differ in a detail not shown here. Identical values can stand only once. “Also recorded” adds a separate entry of the source. Like-named read-outs stand apart in the source and are kept apart here. A value given as a limit tells only on which side of the number the result lay.

As to `Nc1nc(F)nc2c1ncn2[C@@H]1O[C@H](COP(=O)(O)OP(=O)(O)OP(=O)(O)O)[C@@H](O)[C@@H]1O` [FlUTP], the “time to complete oligomerization (time-dependent FRET)” value (“time to complete oligomerization” below) at RNR-α [1] was “less than 5 min”. Further, the “inhibition of D57N-α” value on D57N-human RNR-α mutant [2] is “unresponsive; also recorded: failed to inhibit”.

With `Nc1ccn([C@@H]2O[C@H](CO)[C@@H](O)C2(F)F)c(=O)n1` [F2C, gemcitabine], the “RNR reductase activity in D57N-α-expressing lines after drug treatment” value (“RNR reductase activity” below) in data set [3] is given as “sensitive”.

Consider `Cc1cn([C@H]2C[C@H](O)[C@@H](COP(=O)(O)OP(=O)(O)OP(=O)(O)O)O2)c(=O)[nH]c1=O` [dTTP], for which the “drop in FA” value at D57N RNR-α was found to be 39 ± 1%. Further, on wild type RNR-α (RNR-α 6 μM, T*-dATP 1.2 μM, saturating ligand), the “drop in FA on addition of S-site binder” value was 49 ± 1% and ~ 50%.

Turning to `Nc1nc(F)nc2c1ncn2[C@@H]1O[C@H](COP(=O)(O)OP(=O)(O)O)[C@@H](O)[C@@H]1O` [FlUDP], the “time to complete oligomerization” value at RNR-α [1] was “less than 5 min”. In addition, the “oligomeric state of eluted α by gel filtration” value on RNR-α [4] (20 μM FlUDP included in running buffer) is “exclusively α6”. Further, the “inhibition of D57N-α” value on D57N-human RNR-α mutant [2] is listed as “did not inhibit; also recorded: neither of the diphosphates inhibited”.

Regarding `Nc1nc(Cl)nc2c1ncn2[C@H]1C[C@H](O)[C@@H](COP(=O)(O)OP(=O)(O)OP(=O)(O)O)O1` [ClATP], the “decrease in FA relative to dTTP/dGTP (fold less)” value on D57N RNR-α is ~ 7 fold. Moreover, the “inhibition of D57N-α” value at D57N-human RNR-α mutant [2] is “unresponsive; also recorded: failed to inhibit”. The “further decrease in FA after S site preblocked with saturating dTTP” value on wild type RNR-α was 20 ± 1% and ~ 20%. Further, the “drop in FA on wild type protein compared with D57N” value at wild type RNR-α (ligand added in place of dTTP/dGTP) was “significantly higher drop in FA”.

On to `Nc1ncnc2c1ncn2[C@H]1C[C@H](O)[C@@H](COP(=O)(O)OP(=O)(O)OP(=O)(O)O)O1` [dATP], for which the “oligomeric state by gel filtration of α presaturated with dATP (S and A sites)” value on RNR-α [4] was “only elutes as lower-order species”. Besides, the “reduced affinity at the A site of D57N relative to wt” value on D57N-human RNR-α mutant [5] is on record as ~ 300 fold.

For `Nc1nc(Cl)nc2c1ncn2[C@H]1C[C@H](O)[C@@H](COP(=O)(O)OP(=O)(O)O)O1` [ClADP], the “time to complete oligomerization” value on RNR-α [1] is given as “less than 5 min”. On RNR-α [4], the “oligomeric state by gel filtration of α presaturated with dATP (S and A sites)” value is given as “hexameric peak was observed”. Moreover, at D57N-human RNR-α mutant [2], the “inhibition of D57N-α” value is “did not inhibit; also recorded: failed to inhibit; also recorded: neither of the diphosphates inhibited”. In addition, the “further decrease in FA after S site preblocked with saturating dTTP” value on wild type RNR-α is given as “no statistically significant changes”.

In the case of `Nc1nc(Cl)nc2c1ncn2[C@@H]1O[C@H](COP(=O)(O)OP(=O)(O)OP(=O)(O)O)[C@@H](O)[C@@H]1F` [ClFTP], in the data set on E. coli RNR, the “inhibition of E. coli RNR” value is recorded as “failed to inhibit”.

As to `Nc1nc(Cl)nc2c1ncn2[C@H]1C[C@H](O)[C@@H](CO)O1` [ClA, cladribine], the “RNR inhibition in cells (rate of [5-3H]-dCDP formation in lysate)” value at wt-mouse-(m)RNR-α is “potent RNR inhibition”. Besides, the “protection against cytotoxicity upon tet induction relative to noninduced” value in data set [6] is given as over 20 fold. Moreover, the “RNR reductase activity” value in data set [3] is “not suppressed”. Besides, the “effect of RNR-α overexpression on cytotoxicity relative to noninduced cells” value in data set [7] was “small effect on the EC50”.

Take `Nc1ccn([C@@H]2O[C@H](COP(=O)(O)OP(=O)(O)O)[C@@H](O)C2(F)F)c(=O)n1` [F2CDP, gemcitabine diphosphate]: the “inhibition of D57N-α” value against D57N-human RNR-α mutant [2] is reported as “inhibits D57N-α as effectively as the wild type; also recorded: promoted inactivation of D57N-α as well as wt-α”.

For `Nc1nc(F)nc2c1ncn2[C@@H]1O[C@H](COP(=O)(O)O)[C@@H](O)[C@@H]1O` [FlUMP], the “RNR inhibition in cells (rate of [5-3H]-dCDP formation in lysate)” value on wt-mouse-(m)RNR-α is recorded as “potent RNR inhibition”. For the same molecule, the “effect of D57N-α overexpression on cytotoxicity relative to noninduced cells” value in data set [6] (48 h drug) is on record as “no protection”. The “RNR reductase activity” value in data set [3] was “not suppressed”. Also, in [7] (48 h drug), the “effect of RNR-α overexpression on cytotoxicity relative to noninduced cells” value is given as “no protection”.

Values taken from publication PMC4946967 (ACS chemical biology, 2016).
